Values of other authors, collected in article PMC7395068, “The evolution of strategies to minimise the risk of human drug-induced liver injury (DILI) in drug discovery and development” (Archives of Toxicology, 2020).
Where two headings read alike, the source gives them in different places.

How the values were obtained:
human hepatocytes = settings: cited from earlier work
PHH spheroids = settings: In vitro Assay; ref Vorrink 2018; cited from earlier work
[1] = cited from earlier work
[2] = cited from earlier work; remark: listed apart in the source
[3] = system: isolated mouse liver mitochondria; settings: In vitro Assay; ref Porceddu 2012; cited from earlier work
[4] = cited from earlier work; remark: listed apart in the source
[5] = system: THLE or HepG2 cells, isolated mitochondria, BSEP; settings: ref Aleo 2019, cited from earlier work; for Ro2 Hybrid HRM Score / Partition Hybrid HRM Score: In vitro Assay
HepG2 cells [6] = settings: In vitro Assay; ref Persson 2013; cited from earlier work
HepG2 cells [7] = settings: In vitro Assay; ref O'Brien 2006; cited from earlier work

Compound	hLiMTs ATP <20 x Cmax (PHH spheroids)	In vivo DILI ([1]; ref Aleo 2019)	DILI Score (FDA) (1-8) ([2]; ref Chen 2011)	DILI +VE (5-8), DILI -VE (-4) ([4]; ref Chen 2016)	DILI severity category ([4]; ref Chen 2016)	Ro2 Hybrid HRM Score [5]	Partition Hybrid HRM Score [5]	other results
OC(Cn1cncn1)(Cn1cncn1)c1ccc(F)cc1F [fluconazole]	-VE	+VE	8	+VE	vMost-DILI-Concern	-VE	–	Structural based (HCI) (human hepatocytes; In vitro Assay, ref Xu 2008): -VE; In vivo DILI ([1]; […]): +VE; In vivo DILI ([1]; ref Porceddu 2012): +VE; In vivo DILI ([1]; ref Vorrink 2018): +VE; In vivo DILI ([1]; ref Xu 2008): +VE; in vitro data EC2<=1x Cmax [3]: +VE; in vitro data EC20<=2uM [3]: -VE
O=C(c1ccccc1)c1ccc2n1CCC2C(=O)O (stereo not drawn) [ketorolac]	+VE (IC20 < 20 × Cmax.tot cut-off)	+VE	3	+VE	vLess-DILI-Concern	-VE	-VE	Cluser analysis (HepG2 cells [6]): -VE; Structural based (HCI) (HepG2 cells [6]): -VE; Structural based (HCI) (human hepatocytes; In vitro Assay, ref Xu 2008): -VE; In vivo DILI ([1]; ref O'Brien 2006): +VE; In vivo DILI ([1]; ref Persson 2013): +VE; In vivo DILI ([1]; ref Vorrink 2018): +VE; In vivo DILI ([1]; ref Xu 2008): +VE; Structural based (HCI) (HepG2 cells [7]): -VE
CCc1cccc2c3c([nH]c12)C(CC)(CC(=O)O)OCC3 (stereo not drawn) [etodolac]	–	+VE	8	+VE	vMost-DILI-Concern	+VE	–	–
CC[C@@H](CO)NCCN[C@@H](CC)CO [ethambutol]	–	+VE	8	+VE	vMost-DILI-Concern	-VE	-VE	–
CCOC(=O)C1=C[C@@H](OC(CC)CC)[C@H](NC(C)=O)[C@@H](N)C1 [oseltamivir]	–	–	–	–	–	–	–	DILI Score (FDA) (1-8) ([2]; FDA drug labelling score, ref Chen 2011): 3; DILI severity category ([4]; LTKB DILIrank category, ref Chen 2016): Ambiguous DILI-concern; DILI +VE (5-8), DILI -VE (-4) ([4]; binary DILI call, ref Chen 2016): -VE; Partition Hybrid HRM Score, In vitro Assay ([5]; Partition hybrid): +VE; Ro2 Hybrid HRM Score, In vitro Assay ([5]; Rule of Two hybrid): -VE
CCCCCCCCCCC[C@@H](C[C@@H]1OC(=O)[C@H]1CCCCCC)OC(=O)[C@H](CC(C)C)NC=O [orlistat]	–	+VE	8	+VE	vMost-DILI-Concern	+VE	+VE	–
carboplatin	–	+VE	3	+VE	vLess-DILI-Concern	-VE	-VE	–
CCC[C@@]1(CCc2ccccc2)CC(O)=C([C@H](CC)c2cccc(NS(=O)(=O)c3ccc(C(F)(F)F)cn3)c2)C(=O)O1 [tipranavir]	–	+VE	8	+VE	vMost-DILI-Concern	+VE	+VE	–
Cc1cccc(C)c1OCC(C)N (stereo not drawn) [mexiletine]	+VE (IC20 < 20 × Cmax.tot cut-off)	–	–	–	–	–	–	Structural based (HCI) (human hepatocytes): +VE; In vivo DILI ([1]; in vivo): +VE; DILI Score (FDA) (1-8) ([2]; in vivo): 3; DILI +VE (5-8), DILI -VE (-4) ([4]; in vivo): +VE; DILI severity category ([4]; in vivo): vMost-DILI-Concern
Nc1ccn([C@@H]2O[C@H](CO)[C@@H](O)[C@@H]2O)c(=O)n1 [cytarabine]	–	–	–	–	–	–	–	In vivo DILI ([1]; in vivo): +VE; DILI Score (FDA) (1-8) ([2]; in vivo): 3; DILI +VE (5-8), DILI -VE (-4) ([4]; in vivo): +VE; DILI severity category ([4]; in vivo): vMost-DILI-Concern
